Data reported in paper PMC8916643, “Molecular physiology of pumiliotoxin sequestration in a poison frog” (PLoS ONE, 2022).

Legend:
panel of 165 GPCRs = experiment: gpcrMAX PathHunter beta-arrestin GPCR panel (agonist and antagonist); type: cell-based, human; conditions: 10 uM; 165 GPCRs tested
Protocol: Assays for human CYP activity (CYP phenotyping), CYP2D6 metabolite discovery (metID), ion channel inhibition (CiPA), and G-protein coupled receptor (GPCR) activity (gpcrMAX) were performed through Eurofins Discovery Services (Eurofins Panlabs Inc, St. Charles MO, USA). In the CYP phenotyping panel, human recombinant CYP1A2, CYP2B6, CYP2C8, CYP2C9, CYP2C19, CYP2D6, and CYP3A4 were included in the assay. A concentration of 1E-07 M of PTX 251D was tested, and the percent compound remaining was quantified at 0, 15, 30, 45, and 60 minutes using HPLC-MS/MS. As a positive control, a reference compound was used for each CYP tested (see S1 File for results). In the CYP2D6 metabolism assay, human recombinant CYP2D6 was incubated with an initial concentration of 10 μM and metabolites were quantified after 90 minutes using LC-MS/MS. Two replicates were used for the CYP phenotyping panel and one replicate was used for CYP2D6 metabolite assay. The CiPA assay was a cell-based QPatch on voltage-gated sodium channel NaV1.5 (peak and late/agonist), voltage-gated potassium channels Kv4.3/KChIP2, hERG, KCNQ1/minK, Kir2.1, and voltage-gated calcium channel Cav1.2. The concentrations of PTX 251D assayed were 3, 10, and 30 μM, and a reference compound for each channel was used (see S1 File for results and individual QPatch parameters). […]

human recombinant CYP2D6 = target: T1, human recombinant CYP2D6 (Homo sapiens, UniProt P10635); experiment: CYP phenotyping panel (PTX 251D clearance); type: in vitro ADME; conditions: 1E-07 M PTX 251D
T1 construct: Eurofins Discovery Services (Eurofins Panlabs Inc) ran the assay
Protocol: (§1) Assays for human CYP activity (CYP phenotyping), CYP2D6 metabolite discovery (metID), ion channel inhibition (CiPA), and G-protein coupled receptor (GPCR) activity (gpcrMAX) were performed through Eurofins Discovery Services (Eurofins Panlabs Inc, St. Charles MO, USA). In the CYP phenotyping panel, human recombinant CYP1A2, CYP2B6, CYP2C8, CYP2C9, CYP2C19, CYP2D6, and CYP3A4 were included in the assay. A concentration of 1E-07 M of PTX 251D was tested, and the percent compound remaining was quantified at 0, 15, 30, 45, and 60 minutes using HPLC-MS/MS. As a positive control, a reference compound was used for each CYP tested (see S1 File for results). In the CYP2D6 metabolism assay, human recombinant CYP2D6 was incubated with an initial concentration of 10 μM and metabolites were quantified after 90 minutes using LC-MS/MS. Two replicates were used for the CYP phenotyping panel and one replicate was used for CYP2D6 metabolite assay. The CiPA assay was a cell-based QPatch on voltage-gated sodium channel NaV1.5 (peak and late/agonist), voltage-gated potassium channels Kv4.3/KChIP2, hERG, KCNQ1/minK, Kir2.1, and voltage-gated calcium channel Cav1.2. The concentrations of PTX 251D assayed were 3, 10, and 30 μM, and a reference compound for each channel was used (see S1 File for results and individual QPatch parameters). In the gpcrMAX assay a panel of 165 GPCRs was tested through the DiscoverX PathHunter beta-arrestin enzyme fragment complementation technology, and a concentration of 10 μM PTX 251D was tested for both agonist and antagonist activity along with a reference compound for each GPCR (see S1 File for results).

human recombinant CYP2C8 = target: T2, human recombinant CYP2C8 (Homo sapiens, UniProt P10632); experiment: CYP phenotyping panel (PTX 251D clearance); type: in vitro ADME; conditions: 1E-07 M PTX 251D; after 60 minutes
T2 construct: Eurofins Discovery Services (Eurofins Panlabs Inc) ran the assay
T2 sequence (P10632 1-490): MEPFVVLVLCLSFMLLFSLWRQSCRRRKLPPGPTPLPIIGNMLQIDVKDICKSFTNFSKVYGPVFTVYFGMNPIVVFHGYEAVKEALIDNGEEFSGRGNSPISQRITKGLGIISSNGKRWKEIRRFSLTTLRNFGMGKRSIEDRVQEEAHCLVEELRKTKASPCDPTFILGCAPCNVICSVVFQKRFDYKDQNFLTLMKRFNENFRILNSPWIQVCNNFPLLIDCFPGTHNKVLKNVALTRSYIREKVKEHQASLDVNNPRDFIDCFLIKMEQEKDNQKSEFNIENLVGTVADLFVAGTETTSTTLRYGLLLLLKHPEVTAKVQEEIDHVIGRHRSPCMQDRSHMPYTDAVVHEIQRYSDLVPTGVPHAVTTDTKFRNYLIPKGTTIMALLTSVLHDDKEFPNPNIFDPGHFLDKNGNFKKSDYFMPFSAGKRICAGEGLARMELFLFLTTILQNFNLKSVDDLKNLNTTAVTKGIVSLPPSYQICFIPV
Protocol: as §1

[1] = target: T3, human recombinant CYP2C19 (Homo sapiens, UniProt P33261); experiment: CYP phenotyping panel (PTX 251D clearance); type: in vitro ADME; conditions: 1E-07 M PTX 251D; after 60 minutes
T3 construct: Eurofins Discovery Services (Eurofins Panlabs Inc) ran the assay
Protocol: as §1

human recombinant CYP2B6 = target: T4, human recombinant CYP2B6 (Homo sapiens, UniProt P20813); experiment: CYP phenotyping panel (PTX 251D clearance); type: in vitro ADME; conditions: 1E-07 M PTX 251D; after 60 minutes
T4 construct: Eurofins Discovery Services (Eurofins Panlabs Inc) ran the assay
T4 sequence (P20813 1-491): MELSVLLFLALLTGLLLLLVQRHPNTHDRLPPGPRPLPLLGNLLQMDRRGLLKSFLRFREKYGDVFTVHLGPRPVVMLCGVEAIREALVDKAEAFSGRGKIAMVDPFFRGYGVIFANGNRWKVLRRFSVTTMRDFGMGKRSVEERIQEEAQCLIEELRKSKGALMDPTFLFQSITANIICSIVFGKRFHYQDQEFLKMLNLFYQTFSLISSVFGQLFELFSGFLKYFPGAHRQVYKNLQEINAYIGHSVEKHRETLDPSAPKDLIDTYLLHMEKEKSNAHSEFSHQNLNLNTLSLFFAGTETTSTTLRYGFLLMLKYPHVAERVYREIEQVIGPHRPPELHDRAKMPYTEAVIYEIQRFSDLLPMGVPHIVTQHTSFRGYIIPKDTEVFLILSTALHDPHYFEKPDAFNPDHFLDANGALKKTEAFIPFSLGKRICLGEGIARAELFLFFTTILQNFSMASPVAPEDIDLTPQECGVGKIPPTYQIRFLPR
Protocol: as §1

human recombinant CYP2C9 = target: T5, human recombinant CYP2C9 (Homo sapiens, UniProt P11712); experiment: CYP phenotyping panel (PTX 251D clearance); type: in vitro ADME; conditions: 1E-07 M PTX 251D; after 60 minutes
T5 construct: Eurofins Discovery Services (Eurofins Panlabs Inc) ran the assay
Protocol: as §1

T1 sequence (P10635 whole entry): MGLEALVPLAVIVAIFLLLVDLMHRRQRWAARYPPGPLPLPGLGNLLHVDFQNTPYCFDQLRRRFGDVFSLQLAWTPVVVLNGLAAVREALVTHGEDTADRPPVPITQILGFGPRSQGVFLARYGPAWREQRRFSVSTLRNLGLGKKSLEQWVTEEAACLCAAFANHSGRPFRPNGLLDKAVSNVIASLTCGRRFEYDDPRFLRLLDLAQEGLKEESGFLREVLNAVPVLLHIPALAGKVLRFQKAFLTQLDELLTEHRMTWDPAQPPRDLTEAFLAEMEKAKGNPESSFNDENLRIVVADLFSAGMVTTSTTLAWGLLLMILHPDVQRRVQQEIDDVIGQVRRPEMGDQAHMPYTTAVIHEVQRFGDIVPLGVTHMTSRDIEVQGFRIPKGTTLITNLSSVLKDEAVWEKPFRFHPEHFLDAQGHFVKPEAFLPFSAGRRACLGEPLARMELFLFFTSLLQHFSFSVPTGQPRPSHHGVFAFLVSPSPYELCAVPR
T3 sequence (P33261 whole entry): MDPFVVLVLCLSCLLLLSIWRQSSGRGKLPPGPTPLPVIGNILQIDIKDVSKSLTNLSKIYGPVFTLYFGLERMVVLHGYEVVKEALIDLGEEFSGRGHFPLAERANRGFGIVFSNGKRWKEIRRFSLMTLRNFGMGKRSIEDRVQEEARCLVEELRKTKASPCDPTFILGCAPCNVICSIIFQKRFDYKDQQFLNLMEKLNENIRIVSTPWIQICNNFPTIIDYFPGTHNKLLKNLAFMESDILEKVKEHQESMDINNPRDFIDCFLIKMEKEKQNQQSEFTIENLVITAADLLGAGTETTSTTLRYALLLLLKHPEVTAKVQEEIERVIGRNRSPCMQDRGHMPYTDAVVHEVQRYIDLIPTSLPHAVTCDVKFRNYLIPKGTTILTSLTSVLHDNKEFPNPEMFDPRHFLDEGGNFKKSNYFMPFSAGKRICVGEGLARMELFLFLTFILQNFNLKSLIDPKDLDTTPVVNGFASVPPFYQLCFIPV
T5 sequence (P11712 whole entry): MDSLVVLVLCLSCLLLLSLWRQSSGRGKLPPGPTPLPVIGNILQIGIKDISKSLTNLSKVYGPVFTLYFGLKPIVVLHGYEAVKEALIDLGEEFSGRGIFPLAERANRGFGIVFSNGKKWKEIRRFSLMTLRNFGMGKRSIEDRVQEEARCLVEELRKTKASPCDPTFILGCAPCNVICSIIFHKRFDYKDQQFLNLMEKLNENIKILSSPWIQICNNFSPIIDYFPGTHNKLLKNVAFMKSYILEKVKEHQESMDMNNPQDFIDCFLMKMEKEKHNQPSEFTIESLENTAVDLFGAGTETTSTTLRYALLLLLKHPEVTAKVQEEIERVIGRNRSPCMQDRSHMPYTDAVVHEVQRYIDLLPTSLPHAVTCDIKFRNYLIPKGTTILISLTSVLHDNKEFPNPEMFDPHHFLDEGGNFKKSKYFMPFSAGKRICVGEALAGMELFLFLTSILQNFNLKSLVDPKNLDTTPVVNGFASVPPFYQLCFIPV

What does the source list for `CCCCC(C)C=C1CN2CCCC2C(C)(O)C1` (stereo not shown) [PTX 251D, pumiliotoxin (PTX 251D)]?
inhibition or activation of GPCRs (panel of 165 GPCRs): no significant inhibition or activation; PTX 251D remaining after incubation with CYP2D6 (human recombinant CYP2D6; after 15 minutes): most of the initial compound depleted; clearance of PTX 251D by CYP2D6 (human recombinant CYP2D6; percent compound remaining at 0-60 minutes, HPLC-MS/MS): rapid clearance; clearance of PTX 251D by CYP2C8 (human recombinant CYP2C8): minimal clearance; clearance of PTX 251D by CYP2C19 [1]: minimal clearance; clearance of PTX 251D by CYP2B6 (human recombinant CYP2B6): minimal clearance; clearance of PTX 251D by CYP2C9 (human recombinant CYP2C9): minimal clearance
